Several values for one entry are separate records, joined by “and”; a condition that tells them apart may be missing. Equal values may be shown once.
How the values were obtained:
HEK293 cells = experiment: Voltage sensitivity of fluorescence in voltage-clamped HEK cells (whole-cell recording); assay type: cell-based, human; conditions: for voltage sensitivity ΔF/F per 100 mV: HEK293 cells voltage-clamped at −60 mV holding potential
Excerpt: Membrane voltage of cells loaded with VF1.4.Cl or VF2.4.Cl were controlled by making tight-seal whole-cell recordings. Cells were maintained at a holding potential of −60 mV and stepped for 50 ms to various depolarizing and hyperpolarizing potentials (FIG. 5A), while simultaneously acquiring epifluorescence images. For both sensors, depolarizing steps result in fluorescence increases while hyperpolarizing steps decrease fluorescence intensity, in keeping with our proposed mechanism. […] For di-4-ANEPPS, typical values are 0.08-0.12% per mV. The larger changes for VF1.4.Cl and VF2.4.Cl compared to di-4-ANEPPS are somewhat expected, since a PeT-based voltage sensor samples the entire emission spectrum, whereas electrochromic dyes are limited to the edge of the spectrum only. For both probes, the voltage responses are linear across the physiologically relevant ranges of −100 mV to +100 mV. To assess the speed of the optical response to voltage, VF2.4.Cl signals were monitored in response to voltage steps of 100 mV from a holding potential of −60 mV.
We characterized the voltage sensitivity of all three indicators by making tight-seal whole-cell recordings of HEK293 cells stained with the VF sensors. Cells were voltage-clamped at −60 mV holding potential and sequentially stepped to depolarizing and hyperpolarizing potentials at 20-mV increments (FIG. 9B). For all three dyes, depolarizing steps produced fluorescence increases, whereas hyperpolarizing steps produced fluorescence decreases, in keeping with the proposed PeT mechanism. The fluorescence response is linear over the range of −100 mV to +100 mV (FIG. 9C), with voltage sensitivities ΔF/F per 100 mV of 20±1% for VF1.4.Cl and 25±1% for VF2.4.Cl. This statistically significant increase in voltage sensitivity (P<0.05, two-tailed Student t test) is expected upon increasing the length of the molecular wire, and is 2.5- to 4-times more sensitive than di-4-ANEPPS, which, in our hands, gives sensitivities of between 6% and 10% ΔF/F per 100 mV. […] To investigate the speed of response of VF probes, we again made whole-cell recordings of cells stained with VF2.4.Cl, applied 100-mV depolarizing steps from a holding potential of −60 mV, and recorded both the electrophysiological signals and the optical signals.
(§1) Electrophysiological recordings of HEK293 cells and cultured neurons were performed with an Axopatch 200A or 200B amplifier (Molecular Devices) at room temperature. The signals were digitized with Digidata 1332A and recorded with pCLAMP 9 software (Molecular Devices) on a PC. Analysis of electrophysiological data was done with AxoGraph X (AxoGraphX), pCLAMP 9, and/or ClampFit (Molecular Devices). For most experiments the extracellular solution consisted of (in mM) 145 NaCl, 20 glucose, 10 HEPES, 3 KCl, 2 CaCl2, 1 MgCl2 (pH 7.35, 310 mOsm). The intracellular solution contained (in mM) 115 potassium gluconate, 10 BAPTA tetrapotassium salt, 10 HEPES, 5 NaCl, 10 KCl, 2 ATP disodium salt, 0.3 GTP trisodium salt (pH 7.25, 290 mOsm).
For studies to determine excitation sensitivity of dyes, illumination was provided by a Polychrom IV light source (T.I.L.L. Photonics GMBH) with a mechanical shutter (Uniblitz VS25). For all other studies, light was provided by an Xenon arc lamp powered by an Optiquip Power supply (Optiquip) with a mechanical shutter controlled by a Lambda 10-2 controller (Sutter). […]

rat hippocampal neurons = experiment: Optical detection of evoked action potentials in cultured hippocampal neurons; assay type: cell-based
Protocol: To assay VF2.4.Cl's utility for monitoring neuronal activity, hippocampal neurons isolated from rats neonates were loaded with 2 μM VF2.4.Cl for 15 minutes, washed twice and imaged. […] Neurons were patched, current clamped, and injected with a small pulse (250-400 pA, 1-5 ms) to induce action potential firing. By using a high speed EMCCD camera, capable of sampling small regions of interest (ROI) at rates of approximately 2 kHz, enabled single trial optical detection of action potentials. An action potential with a total voltage change of ˜130 mV was well resolved optically and gave a ΔF/F of 24% with a signal-to-noise ratio of 16. Smaller spikes were detectable as well, a 100 mV change gave a ΔF/F of 15% with an SNR of 15. The slightly diminished sensitivity in neurons (0.15% per mV in neurons vs 0.25% per mV in HEK cells) can be explained primarily by the heterogeneous nature of the preparation; overlapping, non-excitable membranes loaded with VF2.4.Cl contribute to a non-responsive fluorescent signal which dilutes the responsive fraction.
To assess whether VF probes can detect action potentials in single trials, we used cultured rat hippocampal neurons. […] We then injected current into a neuron under whole-cell patch-clamp mode to trigger single action potentials and used a high-speed, back-illuminated EMCCD camera to track fast optical signals from VF2.4.Cl, enabling us to resolve action potentials in neurons in single sweeps (FIG. 13B). The optical trace matched the physiology trace and gave about a 20% ΔF/F increase in fluorescence and a 16:1 signal-to-noise ratio (SNR) in a single trial.
HEK293 cells were cultured in DMEM (CellGrow) supplemented with 10% FBS, 1% penicillin/streptomycin (Invitrogen) and plated on glassbottom culture dishes (35 mm dish, 14 mm microwell with No. 0 coverglass) (MatTek Corporation). Hippocampal neurons were dissected from postnatal day 0 or 1 rat pups and plated on poly-D-lysine-coated glassbottom culture dishes. Neuronal recordings were made 14-28 days in culture.
as §1
For voltage sensitivity measurements, regions of interest were drawn around clamped cells and the mean fluorescence measured in ImageJ or Slidebook. For HEK cells, background fluorescence was subtracted by measuring the fluorescence where no cells grew. For experiments in neurons, the background fluorescence was not subtracted. In all cases, ΔF/F was calculated by dividing the fluorescence signal by the average fluorescence for a baseline of 10-20 frames prior to stimulation.

`CCCCN(CCCC)c1ccc(/C=C/c2ccc(/C=C/c3ccc(-c4c5cc(Cl)c(=O)cc-5oc5cc(O)c(Cl)cc45)c(S(=O)(=O)O)c3)cc2)cc1` [VF2.4.Cl, 5-(4-(4-(dibutylamino)styryl)styryl)-2-(2,7-dichloro-6-hydroxy-3-oxo-3H-xanthen-9-yl)benzenesulfonic acid] was tested, and the “voltage sensitivity ΔF/F per 100 mV” value (HEK293 cells) was 25±1%, the “sensitivity, fractional fluorescence change (ΔF/F) versus change in membrane potential” value (HEK293 cells; HEK cells, holding potential −60 mV) was 0.25±0.01 % per mV and 0.25 % per mV and the SNR (rat hippocampal neurons; 100 mV change) was 15. For the same compound, the “ΔF/F for smaller spike” value (rat hippocampal neurons; 100 mV change) was 15%, the signal-to-noise ratio (rat hippocampal neurons; action potential ~130 mV, single trial) was 16 and the sensitivity in neurons (rat hippocampal neurons; rat hippocampal neurons) was 0.15 % per mV. For the same compound, the “ΔF/F increase in fluorescence for evoked action potential” value (rat hippocampal neurons; single trial, 2 μM, EMCCD 2 kHz) was roughly 20% and the “ΔF/F for action potential” value (rat hippocampal neurons; total voltage change ~130 mV, single trial, 2 μM) was 24%.

`CN(C)c1ccc(/C=C/c2ccc(/C=C/c3ccc(-c4c5cc(Cl)c(=O)cc-5oc5cc(O)c(Cl)cc45)c(S(=O)(=O)O)c3)cc2)cc1` [VF2.1.Cl, 5-(4-(4-(dimethyllamino)styryl)styryl)-2-(2,7-dichloro-6-hydroxy-3-oxo-3H-xanthen-9-yl)benzenesulfonic acid] was tested, and the “voltage sensitivity ΔF/F per 100 mV” value (HEK293 cells) was 27±1%.

— patent publication US11187660B2, “Fluorescent probes for monitoring voltage by photo-induced electron transfer” (The Regents of the University of California, priority 2011, dated 2021)
